According to the supplement of paper PMC6965134:
± gives the standard deviation of the averaged measurements.

Experiment: TIMS collisional cross section (CCS, N2) of the lipid ion; higher = larger ion cross section
Details: ionization mode: negative, one isomer drawn
Method: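 Lipid extracts of human plasma (NIST SRM 1950), mouse liver or HeLa cells were separated by nanoflow C18 LC (30 min gradient) and analysed by TIMS-PASEF on a timsTOF Pro. Ion mobility was calibrated with the Agilent tuning mix (negative mode ions) and converted to collisional cross sections (Mason–Schamp, N2).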
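Also: lipids from MTBE extraction, five replicate injections per sample, 100 ms TIMS ramp spanning 0.6–1.95 Vs/cm², lipid identity assigned from PASEF MS/MS spectra.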

## CC/C=C\C/C=C\C/C=C\C/C=C\C/C=C\C/C=C\CCC(=O)O[C@H](COC(=O)CCCCCCCCCCCCCC)COP(=O)([O-])OCC[N+](C)(C)C [PC 15:0_22:6]
Sample type: Human plasma, ion (formula + adduct): [C45H78NO8P+HCOO] 1-
  TIMS collisional cross section: 294.4 Å²
Sample type: Mouse Liver, ion (formula + adduct): [C45H78NO8P+HCOO] 1-
  TIMS collisional cross section: 294.4 Å²

## CCCCC/C=C\C/C=C\C/C=C\C/C=C\CCCC(=O)O[C@H](COC(=O)CCCCCCCCCCCCCCCCC)COP(=O)(O)OC1C(O)C(O)C(O)[C@@H](O)C1O (stereo partly drawn) [PI 18:0_20:4]
Sample type: Human plasma, ion (formula + adduct): [C47H83O13P-H] 1-
  TIMS collisional cross section: 297.6 Å²
Sample type: Mouse Liver, ion (formula + adduct): [C47H83O13P-H] 1-
  TIMS collisional cross section: 297.6 Å²

## CCCCCCCC/C=C\CCCCCCCCOC[C@@H](O)COP(=O)(O)OCCN [LPE O- 18:1_0:0]
Sample type: Human plasma, ion (formula + adduct): [C23H48NO6P-H] 1-
  TIMS collisional cross section: 218.6 ± 2.1 Å²

## CCCCC/C=C\C/C=C\C/C=C\C/C=C\CCCC(=O)O[C@H](COC(=O)CCCCCCCCCCCCCC)COP(=O)([O-])OCC[N+](C)(C)C [PC 15:0_20:4]
Sample type: Human plasma, ion (formula + adduct): [C43H78NO8P+HCOO] 1-
  TIMS collisional cross section: 291 Å²

## CCCCC/C=C\C/C=C\CCCCCCCC(=O)OC[C@H](COP(=O)(O)OC[C@@H](O)CO)OC(=O)CCCCCCC/C=C\CCCCCCCC [PG 18:2_18:1]
Sample type: Mouse Liver, ion (formula + adduct): [C42H77O10P-H] 1-
  TIMS collisional cross section: 281.4 Å²

## CCCCC/C=C/C=C\CCCCCCCC(=O)O[C@H](COC(=O)CCCCCCC/C=C\C/C=C/CCCCC)COP(=O)([O-])OCC[N+](C)(C)C [PC 18:2_17:2]
Sample type: Mouse Liver, ion (formula + adduct): [C43H78NO8P+HCOO] 1-
  TIMS collisional cross section: 289.3 Å²

## CCCCCCCCCCCCCCCC(=O)OC[C@H](COP(=O)([O-])OCC[N+](C)(C)C)OC(=O)CCCCCCCC [PC 16:0_9:0@]
Sample type: Human plasma, ion (formula + adduct): [C33H66NO8P-H] 1-
  TIMS collisional cross section: 260.3 Å²

## CC/C=C\C/C=C\C/C=C\C/C=C\C/C=C\C/C=C\CCC(=O)O[C@H](CO/C=C\CCCCCCCCCCCCCC)COP(=O)([O-])OCC[N+](C)(C)C [PC P- 16:0@_22:6]
Sample type: Human plasma, ion (formula + adduct): [C46H80NO7P+HCOO] 1-
  TIMS collisional cross section: 296.7 Å²
Sample type: Human plasma, ion (formula + adduct): [C46H80NO7P-CH3] 1-
  TIMS collisional cross section: 280.2 Å²
Sample type: Mouse Liver, ion (formula + adduct): [C46H80NO7P-CH3] 1-
  TIMS collisional cross section: 279.6 Å²

## CC/C=C\C/C=C\CC(O)/C=C/C=C\C/C=C\C/C=C\CCC(=O)O[C@H](COC(=O)CCCCCCCCCCCCCCCCC)COP(=O)(O)OCCN (stereo partly drawn) [Oxidized PE 18:0_22:6]
Sample type: Human plasma, ion (formula + adduct): [C45H78NO9P-H] 1-
  TIMS collisional cross section: 284.6 Å²

## CC/C=C\C/C=C\C/C=C\C/C=C\C/C=C\C/C=C\CCC(=O)O[C@H](COC(=O)CCCC/C=C\C/C=C\C/C=C\C/C=C\CC)COP(=O)([O-])OCC[N+](C)(C)C [PC 18:4@_22:6]
Sample type: Mouse Liver, ion (formula + adduct): [C48H76NO8P-CH3] 1-
  TIMS collisional cross section: 280 Å²

## CCCCCCCCCCCCCCCCCC(=O)OC[C@@H](O)COP(=O)(O)OC[C@@H](O)CO [LPG 18:0_0:0]
Sample type: Human plasma, ion (formula + adduct): [C24H49O9P-H] 1-
  TIMS collisional cross section: 224.9 Å²

## CC/C=C\C/C=C\C/C=C\C/C=C\C/C=C\C/C=C\CCC(=O)OC[C@H](COP(=O)(O)OCCN)OC(=O)CCC/C=C\C/C=C\C/C=C\C/C=C\C/C=C\CC [PE 22:6@_20:5]
Sample type: Mouse Liver, ion (formula + adduct): [C47H72NO8P-H] 1-
  TIMS collisional cross section: 279.4 Å²

## CCCCC/C=C\C/C=C\CCCCCCCCCC(=O)O[C@H](COC(=O)CCCCCCC/C=C\C/C=C\CCCCC)COP(=O)([O-])OCC[N+](C)(C)C [PC 18:2_20:2]
Sample type: Human plasma, ion (formula + adduct): [C46H84NO8P+HCOO] 1-
  TIMS collisional cross section: 299.5 Å²

## CCCCC/C=C\C/C=C\C/C=C\C/C=C\CCCC(=O)O[C@H](COC(=O)CCCCCCCCCCCCCCCC)COP(=O)(O)OCCN [PE 17:0_20:4]
Sample type: Mouse Liver, ion (formula + adduct): [C42H76NO8P-H] 1-
  TIMS collisional cross section: 273.9 Å²

## CCCCCC/C=C\CCCCCCCCCCOC[C@@H](O)COP(=O)([O-])OCC[N+](C)(C)C [LPC O- 18:1_0:0]
Sample type: Human plasma, ion (formula + adduct): [C26H54NO6P+HCOO] 1-
  TIMS collisional cross section: 244 Å²

## CCCCC/C=C\C/C=C\C/C=C\C/C=C\CCCC(=O)O[C@H](COC(=O)CCCCCCCCCCCCC)COP(=O)([O-])OCC[N+](C)(C)C [PC 14:0_20:4@]
Sample type: Mouse Liver, ion (formula + adduct): [C42H76NO8P+AcO] 1-
  TIMS collisional cross section: 288.1 Å²

## CC/C=C\C/C=C\C/C=C\CCCCCCCC(=O)O[C@H](COC(=O)CCCCCCCCCCCCCCC)COP(=O)(O)OCCN [PE 16:0_18:3]
Sample type: Mouse Liver, ion (formula + adduct): [C39H72NO8P-H] 1-
  TIMS collisional cross section: 264.9 Å²

## CCCCC/C=C\C/C=C\C/C=C\CCCCCCC(=O)OC[C@H](COP(=O)(O)OC1[C@H](O)[C@H](O)C(O)[C@H](O)[C@H]1O)OC(=O)CCCCCCCCCCCCCCC (stereo partly drawn) [PI 20:3_16:0@]
Sample type: Mouse Liver, ion (formula + adduct): [C45H81O13P-H] 1-
  TIMS collisional cross section: 293.1 Å²

## CC/C=C\C/C=C\C/C=C\C/C=C\CCCCC(=O)OC[C@H](COP(=O)(O)OCCN)OC(=O)CCCCCCCCCCCCCCCCC [PE 18:4_18:0@]
Sample type: Human plasma, ion (formula + adduct): [C41H74NO8P+AcO] 1-
  TIMS collisional cross section: 282.4 Å²

## CCCCCCCCCCCCCCCCCC(=O)OC[C@@H](O)COP(=O)([O-])OCC[N+](C)(C)C [LPC 18:0_0:0]
Sample type: Human plasma, ion (formula + adduct): [C26H54NO7P+HCOO] 1-
  TIMS collisional cross section: 246.01 ± 2.8 Å²
Sample type: Human plasma, ion (formula + adduct): [C26H54NO7P-CH3] 1-
  TIMS collisional cross section: 225.5 Å²
Sample type: Mouse Liver, ion (formula + adduct): [C26H54NO7P+HCOO] 1-
  TIMS collisional cross section: 244.8 ± 0.42 Å²

## CC/C=C\C/C=C\C/C=C\C/C=C\C/C=C\C/C=C\CCC(=O)O[C@H](COC(=O)CCCCCCCCCCCCCCC)COP(=O)([O-])OCC[N+](C)(C)C [PC 16:0@_22:6]
Sample type: Mouse Liver, ion (formula + adduct): [C46H80NO8P-CH3] 1-
  TIMS collisional cross section: 281.3 Å²

## CC/C=C\C/C=C\C/C=C\C/C=C\C/C=C\C/C=C\CCC(=O)OC[C@H](COP(=O)(O)OCCN)OC(=O)CC/C=C\C/C=C\C/C=C\C/C=C\C/C=C\C/C=C\CC [PE 22:6_22:6]
Sample type: Mouse Liver, ion (formula + adduct): [C49H74NO8P-H] 1-
  TIMS collisional cross section: 283.9 Å²

## CCCCCCCC/C=C\CCCCCCCC(=O)OC[C@H](COP(=O)([O-])OCC[N+](C)(C)C)OC(=O)CCCCCCCCCCCCCCCCCC [PC 18:1_19:0]
Sample type: Mouse Liver, ion (formula + adduct): [C45H88NO8P+HCOO] 1-
  TIMS collisional cross section: 299.5 Å²

## CCCCC/C=C\C/C=C\C/C=C\C/C=C\CCCCCC(=O)O[C@H](COC(=O)CCCCCCCCCCCCCCC)COP(=O)(O)OCCN [PE 16:0_22:4]
Sample type: Human plasma, ion (formula + adduct): [C43H78NO8P-H] 1-
  TIMS collisional cross section: 276.8 Å²

## CCCCC/C=C\C/C=C\C/C=C\C/C=C\CCCC(=O)OC[C@H](COP(=O)(O)OC[C@@H](O)CO)OC(=O)CCCCCCC/C=C\CCCCCCCC [PG 20:4_18:1@]
Sample type: Mouse Liver, ion (formula + adduct): [C44H77O10P-H] 1-
  TIMS collisional cross section: 285.3 Å²

## CCCCCCCCCCCCCCCC(=O)OC[C@@H](O)COP(=O)(O)OC1C(O)C(O)C(O)[C@@H](O)C1O (stereo partly drawn) [LPI 16:0]
Sample type: Mouse Liver, ion (formula + adduct): [C25H49O12P-H] 1-
  TIMS collisional cross section: 232.6 Å²

## CC/C=C\C/C=C\C/C=C\C/C=C\CCCCC(=O)O[C@H](CO/C=C\CCCCCCCCCCCCCC)COP(=O)(O)OCCN [PE P- 16:0@_18:4]
Sample type: Human plasma, ion (formula + adduct): [C39H70NO7P+AcO] 1-
  TIMS collisional cross section: 275.7 Å²

## CCCCCCCCCCCCCCCCCCC(=O)OC[C@H](COP(=O)([O-])OCC[N+](C)(C)C)OC(C)=O [PC 19:0@_2:0]
Sample type: Human plasma, ion (formula + adduct): [C29H58NO8P-H] 1-
  TIMS collisional cross section: 244.4 Å²

## CC/C=C\C/C=C\C/C=C\C/C=C\C/C=C\CCCC(=O)OC[C@@H](O)COP(=O)(O)OCCN [LPE 20:5_0:0]
Sample type: Human plasma, ion (formula + adduct): [C25H42NO7P-H] 1-
  TIMS collisional cross section: 216.7 Å²
Sample type: Mouse Liver, ion (formula + adduct): [C25H42NO7P-H] 1-
  TIMS collisional cross section: 216.7 Å²

## CCCCCCCCCCCCCCCCCC(=O)O[C@H](COC(=O)CCC)COP(=O)([O-])OCC[N+](C)(C)C [PC 4:0@_18:0]
Sample type: Mouse Liver, ion (formula + adduct): [C30H60NO8P+HCOO] 1-
  TIMS collisional cross section: 248.5 Å²

## CCCCCCCCCCCCCCCCCCCC(=O)OC[C@@H](O)COP(=O)([O-])OCC[N+](C)(C)C [LPC 20:0_0:0]
Sample type: Human plasma, ion (formula + adduct): [C28H58NO7P+HCOO] 1-
  TIMS collisional cross section: 253 Å²
